Experimental data as given in patent US20080227638A1, “Use of abscisic acid to enhance growth control” (priority 2007, published 2008).

Tests used:
Type in all cases: in vivo
[1] = tested on: tomato (variety: Rutgers); assay: Tomato leaf transpiration, porometer (Example 9)
From the text: (§1) Tomato (variety: Rutgers) seeds were sown in 18-cell flat filled with Promix PGX (available from Premier Horticulture Inc. Quakertown, Pa.) and grown for 3 weeks to allow for germination and initial growth. Plants were then transplanted into pots (18 cm in diameter and 18 cm in height), filled with Promix BX (available from Premier Horticulture Inc. Quakertown, Pa.), and grown for one week before the chemical treatment. Plants received daily irrigation and weekly fertilizer (1 g/L all purpose fertilizer 20-20-20, available from The Scotts Company, Marysville, Ohio).
(§2) During the chemical treatment, a 15 mL (2.5 mL/plant) solution was foliar sprayed on the tomato canopy. Leaf transpiration rates were measured using a LI-1600 Steady State Porometer (LI-Cor, Lincoln, Nebr.) at 1, 2, 3, 4, 7, 10 and 15 days after treatment. Leaf transpiration rate was normalized to the percentage of control plant to minimize the experimental errors caused by environmental factors. Plant height was measured at 0, 2, 4, 7, 10 and 15 days after treatment. Growth rate was calculated based on the changes of plant height in certain intervals. The plants were harvested and the leaf number was counted at 15 days after treatment.

[2] = tested on: creeping bentgrass; assay: Golf course green creeping bentgrass height, ABA and trinexapac-ethyl (Example 4)
Protocol: (§3) Field studies were conducted at the nursery green or the practice green at Countryside golf course (Mundelein, Ill.). Both greens were sand based and growing Penncross creeping bentgrass. Grass was managed with typical Illinois golf course management practices.
(§4) Chemical solutions were prepared with distilled water. Tween 20 (0.05% v/v) was used as an, adjuvant. Both trinexapac-ethyl (commercial product Primo Maxx, 11.3% active ingredient) and paclobutrazol (commercial product Trimmit 2SC, 22.3% active ingredient) were purchased from Syngenta Crop Protection Inc. (Greensboro, N.C.). Uniconazole-P (commercial product Sumagic, 0.55% active ingredient) was obtained from Valent U.S.A. Corporation (Walnut Creek, Calif.).
(§5) When treated with paclobutrazol or uniconazole-P, turfgrass received irrigation within 24 hours after application to flush chemicals to the root zone. After treatment, turfgrasses were arranged in a randomized complete block experimental design. Turfgrass quality, turfgrass height or clip fresh weight was measured on assigned dates. Turfgrass quality was visually rated on a 0-9 scale based on the color, uniformity and density of the grass with 0 as the worst and 9 as the best. Turfgrass height was measured as the distance between canopy surface and soil. Clips were collected from each plot; all plots were cut to a uniform height.
(§6) All experiments were randomized complete block experimental design. Data were analyzed by analysis of variance. Duncan's new multiple range tests at α=0.05 were used for mean separations.
(§7) Tween 20 (0.05% w/v) was included as an adjuvant.

[3] = tested on: Kentucky bluegrass; assay: Greenhouse Kentucky bluegrass height and quality, ABA and trinexapac-ethyl (Example 1); conditions: for Quality: visual 0-9 scale
Protocol: Greenhouse studies were conducted at the Research Farm of Valent BioSciences Corporation (Long Grove, Ill.). Grasses were grown in pots (18 cm in diameter and 18 cm in height) filled with Promix BX (available from Premier Horticulture Inc. Quakertown, Pa.). Grass was irrigated daily by an overhead irrigation system. The irrigation system was set up with multiple Tornado Mist Spray Heads (10 GPH at 40 PSI-Wetted diameter, NDS/Raindrip, Woodland Hills, Calif.). Spray heads were 1-meter apart from each other and 75 cm above grass canopy. Grass was cut with a scissor at 2.5 cm height and fertilizer (1 g/L all purpose fertilizer 20-20-20, available from The Scotts Company, Marysville, Ohio) was applied once per week.
as §4, §5, §6
Kentucky bluegrass sod (unknown variety) was purchased from Deak sod farms, Inc. (Union Grove, Wis.). Grass was grown in the greenhouse in pots (n=6 pots per treatment) for establishment before treatment. […] Tween 20 (0.05% w/v) was included as an adjuvant. Turfgrass canopy was not cut during the experimental period.

[4] = tested on: tomato (variety: Rutgers); assay: Tomato plant height, growth rate and leaf number (Example 9); conditions: for Leaf number: 15 days after treatment
From the text: as §1, §2

[5] = tested on: creeping bentgrass green; assay: Soil moisture of creeping bentgrass green, ABA and trinexapac-ethyl (Example 8); conditions: 25 ppm trinexapac-ethyl
Protocol: as §3, §4, §5, §6, §7

[6] = 250 ppm trinexapac-ethyl, day 2 after treatment
[7] = 250 ppm trinexapac-ethyl, day 4 after treatment
[8] = 250 ppm trinexapac-ethyl, day 7 after treatment
[9] = 250 ppm trinexapac-ethyl, day 10 after treatment
[10] = 250 ppm trinexapac-ethyl, day 15 after treatment
[11] = 500 ppm trinexapac-ethyl, day 2 after treatment
[12] = 500 ppm trinexapac-ethyl, day 4 after treatment
[13] = 500 ppm trinexapac-ethyl, day 7 after treatment
[14] = 500 ppm trinexapac-ethyl, day 10 after treatment
[15] = 500 ppm trinexapac-ethyl, day 15 after treatment
[16] = 1000 ppm trinexapac-ethyl, day 2 after treatment
[17] = 1000 ppm trinexapac-ethyl, day 4 after treatment
[18] = 1000 ppm trinexapac-ethyl, day 7 after treatment
[19] = 1000 ppm trinexapac-ethyl, day 10 after treatment
[20] = 1000 ppm trinexapac-ethyl, day 15 after treatment
[21] = 2000 ppm trinexapac-ethyl, day 2 after treatment
[22] = 2000 ppm trinexapac-ethyl, day 4 after treatment
[23] = 2000 ppm trinexapac-ethyl, day 7 after treatment
[24] = 2000 ppm trinexapac-ethyl, day 10 after treatment
[25] = 2000 ppm trinexapac-ethyl, day 15 after treatment
[26] = 40 ppm trinexapac-ethyl, 23 days after treatment
[27] = 80 ppm trinexapac-ethyl, 23 days after treatment
[28] = 160 ppm trinexapac-ethyl, 23 days after treatment

CCOC(=O)C1CC(=O)C(=C(O)C2CC2)C(=O)C1 (stereo not shown) [trinexapac-ethyl]
Transpiration ([1]; 250 ppm trinexapac-ethyl, day 1 after treatment): 91 % of control
Transpiration [1, 6]: 99 % of control
Transpiration ([1]; 250 ppm trinexapac-ethyl, day 3 after treatment): 91 % of control
Transpiration [1, 7]: 95 % of control
Transpiration [1, 8]: 100 % of control
Transpiration [1, 9]: 98 % of control
Transpiration [1, 10]: 98 % of control
Transpiration ([1]; 500 ppm trinexapac-ethyl, day 1 after treatment): 91 % of control
Transpiration [1, 11]: 95 % of control
Transpiration ([1]; 500 ppm trinexapac-ethyl, day 3 after treatment): 89 % of control
Transpiration [1, 12]: 96 % of control
Transpiration [1, 13]: 100 % of control
Transpiration [1, 14]: 99 % of control
Transpiration [1, 15]: 100 % of control
Transpiration ([1]; 1000 ppm trinexapac-ethyl, day 1 after treatment): 92 % of control
Transpiration [1, 16]: 96 % of control
Transpiration ([1]; 1000 ppm trinexapac-ethyl, day 3 after treatment): 91 % of control
Transpiration [1, 17]: 98 % of control
Transpiration [1, 18]: 100 % of control
Transpiration [1, 19]: 103 % of control
Transpiration [1, 20]: 99 % of control
Transpiration ([1]; 2000 ppm trinexapac-ethyl, day 1 after treatment): 95 % of control
Transpiration [1, 21]: 94 % of control
Transpiration ([1]; 2000 ppm trinexapac-ethyl, day 3 after treatment): 90 % of control
Transpiration [1, 22]: 98 % of control
Transpiration [1, 23]: 97 % of control
Transpiration [1, 24]: 99 % of control
Transpiration [1, 25]: 98 % of control
Turfgrass height ([2]; 12.5 ppm trinexapac-ethyl, 7 days after treatment): 6.0 cm
Turfgrass height ([2]; 12.5 ppm trinexapac-ethyl, 14 days after treatment): 8.5 cm
Turfgrass height ([2]; 50 ppm trinexapac-ethyl, 7 days after treatment): 4.3 cm
Turfgrass height ([2]; 50 ppm trinexapac-ethyl, 14 days after treatment): 5.5 cm
Turfgrass height ([3]; 40 ppm trinexapac-ethyl, 7 days after treatment): 9.5 cm
Turfgrass height [3, 26]: 18.0 cm
Quality [3, 26]: 7.8
Turfgrass height ([3]; 80 ppm trinexapac-ethyl, 7 days after treatment): 7.4 cm
Turfgrass height [3, 27]: 17.3 cm
Quality [3, 27]: 8.0
Turfgrass height ([3]; 160 ppm trinexapac-ethyl, 7 days after treatment): 6.1 cm
Turfgrass height [3, 28]: 13.3 cm
Quality [3, 28]: 7.0
Leaf number ([4]; 250 ppm trinexapac-ethyl): 12.0
Plant height ([4]; 250 ppm trinexapac-ethyl, day 0 after treatment): 10.3 cm
Growth rate [4, 6]: 1.7 cm/day
Plant height [4, 6]: 13.6 cm
Growth rate [4, 7]: 1.5 cm/day
Plant height [4, 7]: 16.4 cm
Growth rate [4, 8]: 2.6 cm/day
Plant height [4, 8]: 28.7 cm
Growth rate [4, 9]: 2.2 cm/day
Plant height [4, 9]: 32.3 cm
Growth rate [4, 10]: 2.7 cm/day
Plant height [4, 10]: 50.6 cm
Leaf number ([4]; 500 ppm trinexapac-ethyl): 11.7
Plant height ([4]; 500 ppm trinexapac-ethyl, day 0 after treatment): 9.8 cm
Growth rate [4, 11]: 1.7 cm/day
Plant height [4, 11]: 13.1 cm
Growth rate [4, 12]: 1.5 cm/day
Plant height [4, 12]: 15.9 cm
Growth rate [4, 13]: 2.6 cm/day
Plant height [4, 13]: 28.3 cm
Growth rate [4, 14]: 2.2 cm/day
Plant height [4, 14]: 31.2 cm
Growth rate [4, 15]: 2.6 cm/day
Plant height [4, 15]: 50.7 cm
Leaf number ([4]; 1000 ppm trinexapac-ethyl): 11.7
Plant height ([4]; 1000 ppm trinexapac-ethyl, day 0 after treatment): 10.0 cm
Growth rate [4, 16]: 1.2 cm/day
Plant height [4, 16]: 12.3 cm
Growth rate [4, 17]: 1.4 cm/day
Plant height [4, 17]: 15.4 cm
Growth rate [4, 18]: 2.4 cm/day
Plant height [4, 18]: 26.7 cm
Growth rate [4, 19]: 2.1 cm/day
Plant height [4, 19]: 31.3 cm
Growth rate [4, 20]: 2.8 cm/day
Plant height [4, 20]: 52.7 cm
Leaf number ([4]; 2000 ppm trinexapac-ethyl): 11.5
Plant height ([4]; 2000 ppm trinexapac-ethyl, day 0 after treatment): 9.9 cm
Growth rate [4, 21]: 1.2 cm/day
Plant height [4, 21]: 12.2 cm
Growth rate [4, 22]: 1.5 cm/day
Plant height [4, 22]: 15.8 cm
Growth rate [4, 23]: 2.0 cm/day
Plant height [4, 23]: 23.9 cm
Growth rate [4, 24]: 2.0 cm/day
Plant height [4, 24]: 29.3 cm
Growth rate [4, 25]: 2.7 cm/day
Plant height [4, 25]: 50.6 cm
Soil moisture ([5]; 2 days after treatment): 11.2%
Soil moisture ([5]; 7 days after treatment): 12.7%
